# Patent US11000033B2, “Ketone or oxime compound, and herbicide” (NISSAN CHEMICAL CORPORATION, priority 2014, dated 2021)
# Tests used:
# Assay type in all cases: in vivo
# Digitaria ciliaris = assay: Test Example 4: herbicidal effect by soil treatment (symbol F)
# Excerpt: (§1) Herbicidal Effect Test by Soil Treatment
# Sterilized diluvial soil was placed in a plastic box having a length of 21 cm, a width of 13 cm, and a depth of 7 cm. Each of the seeds of Digitaria ciliaris, Setaria viridis, Echinochloa crus-galli var. crus-galli, Avena fatua, Alopecurus myosuroides, Lolium multiflorum Lam., Apera spica-venti, Abutilon theophrasti, Amaranthus retroflexus, Chenopodium album, Stellaria media, Galium spurium, Veronica persica, corn, soybean, rice, wheat, beet, and rapeseed was sowed in a spot-like manner and was covered with the soil of a thickness of about 1.5 cm. Subsequently, the emulsion agent of the compound present invention prepared in accordance with Formulation Example 2 was diluted with water so as to be a predetermined herbicide amount and the diluted emulsion agent was uniformly applied to the surface of the soil with a small-size spray. The plastic box was placed in a greenhouse of 25° C. to 30° C. to grow plant. 3 weeks later from the herbicide application, the effect to each plant was investigated in accordance with the criteria of Test Example 1.
# soybean [1] = assay: Test Example 4: effect on crop by soil treatment (symbol d)
# Excerpt: as §1
# (§2) Sterilized diluvial soil was placed in a plastic box having a length of 21 cm, a width of 13 cm, and a depth of 7 cm. Each of the seeds of Digitaria ciliaris, Setaria viridis, Echinochloa crus-galli var. crus-galli, Avena fatua, Alopecurus myosuroides, Lolium multiflorum Lam., Apera spica-venti, Abutilon theophrasti, Amaranthus retroflexus, Chenopodium album, Stellaria media, Galium spurium, Veronica persica, corn, soybean, rice, wheat, beet, and rapeseed was sowed in a spot-like manner and was covered with the soil of a thickness of about 1.5 cm. […] The plastic box was placed in a greenhouse of 25° C. to 30° C. to grow plant.
# Lolium multiflorum Lam. = assay: Test Example 5: herbicidal effect by foliage application, plastic box (symbol K); conditions: 3 weeks after application
# Procedure, shortened: (§3)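 Visual herbicidal score, taken three weeks post-application, of seedlings sprayed on the foliage with water-diluted emulsion at a predetermined amount; plants were 14 days old, greenhouse-raised at 25° C. to 30° C.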
# rapeseed = assay: Test Example 4: effect on crop by soil treatment (symbol g)
# Excerpt: as §1, §2
# Amaranthus retroflexus = assay: Test Example 5: herbicidal effect by foliage application, plastic box (symbol N); conditions: 3 weeks after application
# Procedure, shortened: as §3
# Chenopodium album = assay: Test Example 5: herbicidal effect by foliage application, plastic box (symbol O); conditions: 320 g/ha, 3 weeks after application
# Procedure, shortened: as §3
# [2] = tested on: Echinochloa crus-galli var. crus-galli; assay: Test Example 5: herbicidal effect by foliage application, plastic box (symbol H); conditions: 3 weeks after application
# Procedure, shortened: as §3
# beet = assay: Test Example 5: effect on crop by foliage application, plastic box (symbol f); conditions: 3 weeks after application
# Procedure, shortened: (§4)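 Diluvial soil, sterilized and boxed (21 × 13 × 7 cm), received spot-sown seed covered by about 1.5 cm soil; plants were then greenhouse-grown at 25–30° C.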
# Monochoria vaginalis = assay: Test Example 1: herbicidal activity, application before weed generation in submerged conditions (symbol C)
# Procedure, shortened: (§5)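 Scores run 0 to 5 by herbicidal ratio, with 5 meaning 90% or more and 0 meaning 5% or lower, read 3 weeks after treatment. Compound was applied as a diluted emulsion to the water surface of submerged alluvial-soil pots on the day weed seeds were sown.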
# soybean [3] = assay: Test Example 5: effect on crop by foliage application, plastic box (symbol d); conditions: 3 weeks after application
# Procedure, shortened: as §4
# wheat [4] = assay: Test Example 4: effect on crop by soil treatment (symbol e)
# Excerpt: as §1, §2
# wheat [5] = assay: Test Example 5: effect on crop by foliage application, plastic box (symbol e); conditions: 3 weeks after application
# Procedure, shortened: as §4
# [6] = tested on: directly sowed rice plant; assay: Test Example 3: effect on crop by foliage application, Wagner pot (symbol b)
# Procedure, shortened: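 Wagner pot (1/10000 are), alluvial soil, submerged 0.1–0.5 cm; sown E. crus-galli var. crus-galli, L. chinensis, C. difformis, rice; greenhouse 25–30 °C.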
# Veronica persica = assay: Test Example 5: herbicidal effect by foliage application, plastic box (symbol R); conditions: 3 weeks after application
# Procedure, shortened: as §3
# [7] = tested on: Echinochloa oryzacola Vasing.; assay: Test Example 1: herbicidal activity, application before weed generation in submerged conditions (symbol A)
# Procedure, shortened: as §5
# [8] = application herbicide amount 320 g/ha
# [9] = application herbicide amount 192 g/ha
smiles,measurement,setting,value
CON=C(C)CC1CC(OC(=O)C#C[Si](C)(C)C)=C(c2c(C)cc(C)cc2C)C1=O (centres unmarked) [1-096],"F: Digitaria ciliaris, herbicidal effect grade",Digitaria ciliaris; 320 g/ha,5 (Herbicidal ratio of 90% or more (almost completely withered))
same,"d: soybean, effect grade on crop",soybean [1]; 320 g/ha,1 (Herbicidal ratio of 5% or higher and lower than 20%)
same,"K: Lolium multiflorum Lam., herbicidal effect (criteria 0-5)",Lolium multiflorum Lam.; 320 g/ha,5 (Herbicidal ratio of 90% or more (almost completely withered))
same,"g: rapeseed, effect grade on crop",rapeseed; 320 g/ha,3 (Herbicidal ratio of 40% or higher and lower than 70%)
same,"N: Amaranthus retroflexus, herbicidal effect (criteria 0-5)",Amaranthus retroflexus; 320 g/ha,2 (Herbicidal ratio of 20% or higher and lower than 40%)
same,"O: Chenopodium album, herbicidal effect (criteria 0-5)",Chenopodium album,2 (Herbicidal ratio of 20% or higher and lower than 40%)
same,"H: Echinochloa crus-galli var. crus-galli, herbicidal effect (criteria 0-5)",[2]; 320 g/ha,5 (Herbicidal ratio of 90% or more (almost completely withered))
same,"f: beet, effect on crop (criteria 0-5)",beet; 320 g/ha,0 (Herbicidal ratio of 5% or lower (almost no effect))
same,"Herbicidal effect grade, C: Monochoria vaginalis",Monochoria vaginalis; [8],0 (Herbicidal ratio of 5% or lower (almost no effect))
same,"d: soybean, effect on crop (criteria 0-5)",soybean [3]; 320 g/ha,3 (Herbicidal ratio of 40% or higher and lower than 70%)
same,"e: wheat, effect grade on crop",wheat [4]; 320 g/ha,3 (Herbicidal ratio of 40% or higher and lower than 70%)
same,"e: wheat, effect on crop (criteria 0-5)",wheat [5]; 320 g/ha,5 (Herbicidal ratio of 90% or more (almost completely withered))
same,"effect on crop b (directly sowed rice plant), grade 0-5",[6]; [8],5 (Herbicidal ratio of 90% or more (almost completely withered))
same,"R: Veronica persica, herbicidal effect (criteria 0-5)",Veronica persica; 320 g/ha,3 (Herbicidal ratio of 40% or higher and lower than 70%)
same,"Herbicidal effect grade, A: Echinochloa oryzacola Vasing.",[7]; [8],5 (Herbicidal ratio of 90% or more (almost completely withered))
Cc1cc(Br)cc(C)c1C1=C(O)CC(CC(=NOCC(F)(F)F)C2CC2)C1=O (centres unmarked) [9-009],"Herbicidal effect grade, F: Digitaria ciliaris",Digitaria ciliaris; [8],5 (Herbicidal ratio of 90% or more (almost completely withered))
same,"Effect on crop grade, d: soybean",soybean [1]; [8],0 (Herbicidal ratio of 5% or lower (almost no effect))
same,"K: Lolium multiflorum Lam., herbicidal effect grade",Lolium multiflorum Lam.; 320 g/ha,5 (Herbicidal ratio of 90% or more (almost completely withered))
same,"Effect on crop grade, g: rapeseed",rapeseed; [8],0 (Herbicidal ratio of 5% or lower (almost no effect))
same,"N: Amaranthus retroflexus, herbicidal effect grade",Amaranthus retroflexus; 320 g/ha,0 (Herbicidal ratio of 5% or lower (almost no effect))
same,"O: Chenopodium album, herbicidal effect grade",Chenopodium album,0 (Herbicidal ratio of 5% or lower (almost no effect))
same,"H: Echinochloa crus-galli var. crus-galli, herbicidal effect grade",[2]; 320 g/ha,5 (Herbicidal ratio of 90% or more (almost completely withered))
same,"f: beet, effect on crop grade",beet; 320 g/ha,0 (Herbicidal ratio of 5% or lower (almost no effect))
same,C (Monochoria vaginalis) herbicidal effect grade,Monochoria vaginalis; [8],0 (Herbicidal ratio of 5% or lower (almost no effect))
same,"d: soybean, effect on crop grade",soybean [3]; 320 g/ha,0 (Herbicidal ratio of 5% or lower (almost no effect))
same,"Effect on crop grade, e: wheat",wheat [4]; [8],0 (Herbicidal ratio of 5% or lower (almost no effect))
same,"e: wheat, effect on crop grade",wheat [5]; 320 g/ha,0 (Herbicidal ratio of 5% or lower (almost no effect))
same,b (directly sowed rice plant) effect on crop grade,"[6]; application herbicide amount 320 g/ha, Table 24",5 (Herbicidal ratio of 90% or more (almost completely withered))
same,"R: Veronica persica, herbicidal effect grade",Veronica persica; 320 g/ha,0 (Herbicidal ratio of 5% or lower (almost no effect))
same,A (Echinochloa oryzacola Vasing.) herbicidal effect grade,[7]; [8],4 (Herbicidal ratio of 70% or higher and lower than 90%)
CON=C(C)CC1CC(OC(=O)C2CCCO2)=C(c2c(C)cc(C)cc2C)C1=O (centres unmarked) [1-076],"F: Digitaria ciliaris, herbicidal effect grade",Digitaria ciliaris; 192 g/ha,5 (Herbicidal ratio of 90% or more (almost completely withered))
same,"d: soybean, effect grade on crop",soybean [1]; 192 g/ha,0 (Herbicidal ratio of 5% or lower (almost no effect))
same,"K: Lolium multiflorum Lam., herbicidal effect (criteria 0-5)",Lolium multiflorum Lam.; 192 g/ha,5 (Herbicidal ratio of 90% or more (almost completely withered))
same,"g: rapeseed, effect grade on crop",rapeseed; 192 g/ha,4 (Herbicidal ratio of 70% or higher and lower than 90%)
same,"N: Amaranthus retroflexus, herbicidal effect (criteria 0-5)",Amaranthus retroflexus; 192 g/ha,0 (Herbicidal ratio of 5% or lower (almost no effect))
same,"H: Echinochloa crus-galli var. crus-galli, herbicidal effect (criteria 0-5)",[2]; 192 g/ha,5 (Herbicidal ratio of 90% or more (almost completely withered))
same,"f: beet, effect on crop (criteria 0-5)",beet; 192 g/ha,0 (Herbicidal ratio of 5% or lower (almost no effect))
same,"Herbicidal effect grade, C: Monochoria vaginalis",Monochoria vaginalis; [9],0 (Herbicidal ratio of 5% or lower (almost no effect))
same,"d: soybean, effect on crop (criteria 0-5)",soybean [3]; 192 g/ha,4 (Herbicidal ratio of 70% or higher and lower than 90%)
same,"e: wheat, effect grade on crop",wheat [4]; 192 g/ha,4 (Herbicidal ratio of 70% or higher and lower than 90%)
same,"e: wheat, effect on crop (criteria 0-5)",wheat [5]; 192 g/ha,5 (Herbicidal ratio of 90% or more (almost completely withered))
same,"effect on crop b (directly sowed rice plant), grade 0-5",[6]; [9],5 (Herbicidal ratio of 90% or more (almost completely withered))
same,"R: Veronica persica, herbicidal effect (criteria 0-5)",Veronica persica; 192 g/ha,3 (Herbicidal ratio of 40% or higher and lower than 70%)
same,"Herbicidal effect grade, A: Echinochloa oryzacola Vasing.",[7]; [9],4 (Herbicidal ratio of 70% or higher and lower than 90%)
CON=C(CC1CC(O)=C(c2c(C)cc(C)cc2C)C1=O)C(F)(F)F (centres unmarked) [1-097],"F: Digitaria ciliaris, herbicidal effect grade",Digitaria ciliaris; 320 g/ha,0 (Herbicidal ratio of 5% or lower (almost no effect))
same,"d: soybean, effect grade on crop",soybean [1]; 320 g/ha,0 (Herbicidal ratio of 5% or lower (almost no effect))
same,"K: Lolium multiflorum Lam., herbicidal effect (criteria 0-5)",Lolium multiflorum Lam.; 320 g/ha,5 (Herbicidal ratio of 90% or more (almost completely withered))
same,"g: rapeseed, effect grade on crop",rapeseed; 320 g/ha,3 (Herbicidal ratio of 40% or higher and lower than 70%)
same,"O: Chenopodium album, herbicidal effect (criteria 0-5)",Chenopodium album,1 (Herbicidal ratio of 5% or higher and lower than 20%)
same,"H: Echinochloa crus-galli var. crus-galli, herbicidal effect (criteria 0-5)",[2]; 320 g/ha,5 (Herbicidal ratio of 90% or more (almost completely withered))
same,"Herbicidal effect grade, C: Monochoria vaginalis",Monochoria vaginalis; [8],0 (Herbicidal ratio of 5% or lower (almost no effect))
same,"d: soybean, effect on crop (criteria 0-5)",soybean [3]; 320 g/ha,3 (Herbicidal ratio of 40% or higher and lower than 70%)
same,"e: wheat, effect grade on crop",wheat [4]; 320 g/ha,0 (Herbicidal ratio of 5% or lower (almost no effect))
same,"e: wheat, effect on crop (criteria 0-5)",wheat [5]; 320 g/ha,2 (Herbicidal ratio of 20% or higher and lower than 40%)
same,"R: Veronica persica, herbicidal effect (criteria 0-5)",Veronica persica; 320 g/ha,3 (Herbicidal ratio of 40% or higher and lower than 70%)
same,"Herbicidal effect grade, A: Echinochloa oryzacola Vasing.",[7]; [8],3 (Herbicidal ratio of 40% or higher and lower than 70%)
